Measured values taken from ChEMBL document CHEMBL1201862, “PubChem BioAssay data set” (2004).
The source made the active and inactive calls. Non-standard residues stand in square brackets, D forms with d. Residues, ends and D or L forms follow the SMILES beside them. ξ: configuration not given here. Pen = CC(C)(S)[C@H](N)C(=O)O; ξL = CC(C)CC(N)C(=O)O

Experiments:
Type in all cases: functional
[1] = tested on: SN12K1; test: cells; conditions: Homo sapiens
[2] = tested on: P388/ADR; test: cells; conditions: Mus musculus
[3] = tested on: P388; test: cells; conditions: Mus musculus
[4] = target: T1, Heat shock factor protein 1 (Mus musculus, UniProt P38532); test: decrease of HSF1-responsive luciferase luminescence – cell-based, NIH3T3, dose retest, confirmation (AID 2382);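 note: NIH3T3 fibroblasts with HSF1-driven luciferase reporter stressed by proteasome inhibitor MG132; luminescence from HSF1-driven luciferase expression after 8 hours of MG132 stress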
T1 sequence (P38532 whole entry): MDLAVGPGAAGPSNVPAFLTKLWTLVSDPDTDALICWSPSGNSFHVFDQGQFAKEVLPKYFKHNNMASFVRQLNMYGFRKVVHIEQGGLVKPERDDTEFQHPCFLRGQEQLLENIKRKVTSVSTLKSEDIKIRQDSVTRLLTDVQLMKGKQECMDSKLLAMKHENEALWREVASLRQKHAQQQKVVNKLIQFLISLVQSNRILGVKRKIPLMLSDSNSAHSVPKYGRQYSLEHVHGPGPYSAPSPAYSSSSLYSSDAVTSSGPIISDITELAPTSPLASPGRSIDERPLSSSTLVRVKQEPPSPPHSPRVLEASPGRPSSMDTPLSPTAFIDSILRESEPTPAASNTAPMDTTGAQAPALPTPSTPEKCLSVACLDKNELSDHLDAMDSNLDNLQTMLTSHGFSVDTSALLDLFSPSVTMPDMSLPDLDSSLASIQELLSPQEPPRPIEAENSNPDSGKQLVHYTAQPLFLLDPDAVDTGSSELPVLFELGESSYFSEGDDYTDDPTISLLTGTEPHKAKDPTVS

[5] = target: T2, Protein skinhead-1 (Caenorhabditis elegans, UniProt P34707)
T2 sequence (P34707 whole entry): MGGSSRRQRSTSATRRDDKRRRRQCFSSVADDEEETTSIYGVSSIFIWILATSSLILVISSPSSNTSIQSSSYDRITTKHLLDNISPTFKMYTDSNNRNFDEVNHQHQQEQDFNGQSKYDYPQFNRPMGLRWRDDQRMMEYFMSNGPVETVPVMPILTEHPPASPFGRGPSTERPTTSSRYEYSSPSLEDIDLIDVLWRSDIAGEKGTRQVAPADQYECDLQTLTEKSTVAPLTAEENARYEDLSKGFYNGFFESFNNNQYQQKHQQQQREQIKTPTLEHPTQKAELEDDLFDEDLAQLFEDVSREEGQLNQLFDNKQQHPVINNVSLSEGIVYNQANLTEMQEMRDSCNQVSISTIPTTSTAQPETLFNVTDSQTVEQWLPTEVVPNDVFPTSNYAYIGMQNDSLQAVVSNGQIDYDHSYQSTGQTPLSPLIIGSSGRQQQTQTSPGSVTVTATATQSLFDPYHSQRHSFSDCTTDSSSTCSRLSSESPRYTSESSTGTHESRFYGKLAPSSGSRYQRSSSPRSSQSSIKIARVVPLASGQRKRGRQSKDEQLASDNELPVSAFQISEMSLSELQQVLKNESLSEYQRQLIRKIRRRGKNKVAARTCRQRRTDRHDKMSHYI

[6] = target: T1, Heat shock factor protein 1; test: enhancement of HSF1-driven luciferase signal – cell-based, NIH3T3, luminescence, dose retest, confirmation (AID 435004);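 note: stress induced by proteasome inhibitor MG132 added 30 min after compound; luciferase reporter driven by HSF1 response element in NIH3T3 cells; actives raise luminescence as potentiators of the MG132 stress response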

Compound	EC50 [6]	GI50 [1]	GI50 [2]	GI50 [3]	further results
CCOC(=O)CNC(=O)NC12CC3CC(CC(C3)C1)C2	–	141 µM (inactive)	225 µM (inactive)	63.8 µM (inactive)	–
CC(=O)OCC1OC(Nc2ncc(-c3ccc(C)cc3)s2)C(OC(C)=O)C(OC(C)=O)C1OC(C)=O (stereo not drawn)	–	46.8 µM (inactive)	25.2 µM (inactive)	28.4 µM (inactive)	–
O=[N+]([O-])c1ccc(N2CCCC2)c2ccncc12	–	–	–	–	EC50 [4]: 31.2 µM (active); IC50 [5]: > 100 µM (inactive)
c1ccc2c(c1)SCCc1cn[nH]c1-2	–	> 100 µM (inactive)	> 100 µM (inactive)	> 100 µM (inactive)	–
C[S+](C)CC1OC(n2cnc3c(N)ncnc32)C(O)C1O (stereo not drawn)	–	> 225 µM (inactive)	> 22.5 µM (inactive)	> 225 µM (inactive)	–
C=C1C[C@@H](O)C[C@@]2(C)C[C@@H]3OC(=O)C(=C)[C@@H]3C[C@H]12	–	12.3 µM (inactive)	2.2 µM (inactive)	2.46 µM (inactive)	–
Cc1cc(O)c2c(c1O)C(=O)C13C(=C(O)C4C(O)C1C1C(O)C3C(O)=C3C(=O)c5c(O)cc(C)c(O)c5C(=O)C341)C2=O (stereo not drawn)	–	0.0506 µM (active)	0.0461 µM (active)	< 0.01 µM (active)	–
CSCC[C@H](NC(=O)C(CC(C)C)NC(=O)[C@H](Cc1c[nH]cn1)NC(=O)CNC(=O)[C@@H](NC(=O)[C@@H](C)NC(=O)[C@H](Cc1c[nH]c2ccccc12)NC(=O)[C@H](CCC(N)=O)NC(=O)[C@@H](N)CC(N)=O)C(C)(C)SC)C(N)=O (stereo partly drawn) (H-NQW[dA][Pen](Me)GH[ξL]M-NH2)	–	> 100 µM (inactive)	> 100 µM (inactive)	> 100 µM (inactive)	–
CCCCCCSc1nc(N)nc2nc[nH]c12	–	38.7 µM (inactive)	12.7 µM (inactive)	> 40.8 µM (inactive)	–
CN(C)CCOc1cc2c(c3ccccc13)-c1ccccc1C2=O	–	0.589 µM (active)	0.36 µM (active)	0.0435 µM (active)	–
CCOC(=O)/C=C/c1c[nH]c(C(=O)OCC)c1	–	> 100 µM (inactive)	> 100 µM (inactive)	> 100 µM (inactive)	–
Cc1cccc(C(=O)N(Cc2cccs2)C2CCS(=O)(=O)C2)c1 (stereo not drawn)	–	–	–	–	IC50 [5]: > 100 µM (inactive)
COC(=O)C1C(O)C(C)C(O)C(C)(O)/C=C\C=C(C)C(=O)Nc2c(C)c(OC(C)=O)c3c(c2O)C(=O)C(C)=C2OCOC(=C23)C(C)=CC(C)(O)C(O)C(C)C1OC(C)=O (stereo not drawn)	–	37 µM (inactive)	41.5 µM (inactive)	30.3 µM (inactive)	–
CN(C)CCNC(=O)c1cc(Cl)cc2cc3ccccc3nc12	–	0.378 µM (active)	0.0622 µM (active)	0.128 µM (active)	–
NCCCC(N)(C(=O)O)C(F)F (stereo not drawn) [EFLORNITHINE]	–	1400 µM (inactive)	> 1840 µM (inactive)	275 µM (inactive)	–

Continued, in another order:

EC50 [6]	Compound	GI50 [1]	GI50 [2]	GI50 [3]	further results
> 260 µM (inactive)	COc1cccc(NC(=O)CSc2nc3c4ccccc4nc-3c(O)n2C)c1	–	–	–	–
> 260 µM (inactive)	O=C(CSc1nc2nccnc2c(=O)n1Cc1cccs1)Nc1ccccc1F	–	–	–	–
> 260 µM (inactive)	COc1cc(C)c(S(=O)(=O)N2CCN=C2c2ccccc2)cc1C	–	–	–	–
> 260 µM (inactive)	CC(C)(C)c1cccc(/C=N/O)c1O	–	–	–	–
> 260 µM (inactive)	NC(=O)c1ccc(NC(=O)CC23CC4CC(CC(Br)(C4)C2)C3)cc1	–	–	–	–
0.943 µM (active)	Cc1ccccc1C(=O)O/N=C1\CCS(=O)(=O)c2sccc21	–	–	–	–
> 260 µM (inactive)	Cc1ccc(N2C(=O)CCC2(C#N)c2ccccc2)cc1 (stereo not drawn)	–	–	–	–
> 260 µM (inactive)	Cc1ccccc1N(C(=O)c1csnn1)C(C(=O)NC(C)(C)C)c1ccncc1 (stereo not drawn)	–	–	–	–
> 260 µM (inactive)	CCOC(=O)c1c(NC(=O)CSc2nc3ccccc3o2)sc(C)c1C	–	–	–	–
> 260 µM (inactive)	COc1ccccc1CNC(=O)c1ccc(NS(=O)(=O)c2cccs2)cc1	–	–	–	–
> 260 µM (inactive)	CSc1nc(NC(C)(C)C)nc(Oc2ccc(O)nn2)n1	–	–	–	–
